Test results published in BindingDB's records for patent US10485800 (The University of Rochester, 2019).

Biological target: Mitogen-activated protein kinase kinase kinase 11 (Homo sapiens, UniProt Q16584)
Assay: Radiometric Filter Plate MLK3 Assay
Procedure: 200 ng (130 nM) MLK3 (Dundee, DU8313) was incubated with 1 μM inactive MKK7b (Dundee, DU703) in the presence of 2 μM cold ATP (Km) and 0.5 μCi/assay 33P ATP and appropriate concentrations of compounds. After a twenty minute incubation, the reactions were washed through filter plates and read on a scintillation counter.

Mitogen-activated protein kinase kinase kinase 11, sequence (Q16584 whole entry): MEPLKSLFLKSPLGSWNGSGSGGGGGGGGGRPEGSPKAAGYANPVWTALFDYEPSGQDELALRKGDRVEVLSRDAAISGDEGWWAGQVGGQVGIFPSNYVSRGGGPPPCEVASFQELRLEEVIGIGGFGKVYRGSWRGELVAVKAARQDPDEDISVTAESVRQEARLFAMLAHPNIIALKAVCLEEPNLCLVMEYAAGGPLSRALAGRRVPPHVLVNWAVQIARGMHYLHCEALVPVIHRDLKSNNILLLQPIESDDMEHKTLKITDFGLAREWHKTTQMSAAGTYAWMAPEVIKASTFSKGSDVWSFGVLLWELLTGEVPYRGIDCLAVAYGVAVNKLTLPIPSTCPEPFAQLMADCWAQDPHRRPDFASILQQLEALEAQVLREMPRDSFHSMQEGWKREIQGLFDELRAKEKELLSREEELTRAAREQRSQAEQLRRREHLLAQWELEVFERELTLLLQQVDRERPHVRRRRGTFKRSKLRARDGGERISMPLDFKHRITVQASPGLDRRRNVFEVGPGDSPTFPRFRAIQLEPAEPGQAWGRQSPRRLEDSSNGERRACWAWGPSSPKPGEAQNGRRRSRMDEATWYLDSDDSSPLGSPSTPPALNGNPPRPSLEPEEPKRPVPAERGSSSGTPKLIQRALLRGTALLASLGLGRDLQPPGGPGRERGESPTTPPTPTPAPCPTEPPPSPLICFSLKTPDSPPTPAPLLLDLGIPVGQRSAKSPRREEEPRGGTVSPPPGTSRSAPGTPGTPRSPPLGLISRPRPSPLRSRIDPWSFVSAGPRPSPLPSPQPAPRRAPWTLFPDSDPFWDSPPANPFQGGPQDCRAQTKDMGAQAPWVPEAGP

CC(=O)N1CCN(C(=O)c2ccc(-c3cnc4[nH]cc(-c5ccc(C(N)=O)cc5)c4c3)cc2)CC1 [US10485800, Example 150]
IC50: in the range around 550 nM
